Assay results: paper PMC10184130

Experiments:
Type in all cases: biochemical
human C1s = target: T1, human C1s (Homo sapiens, UniProt P09871); test: Human C1s enzyme assay; conditions: 95% confidence intervals in parentheses
T1 construct: Recombinant human C1s (358–688 aa) fused with both the N-terminal IgG signal peptide; IgG signal peptide (N); His tag (C); made in house; host or cells: HEK293 cells
T1 sequence (P09871 358-688): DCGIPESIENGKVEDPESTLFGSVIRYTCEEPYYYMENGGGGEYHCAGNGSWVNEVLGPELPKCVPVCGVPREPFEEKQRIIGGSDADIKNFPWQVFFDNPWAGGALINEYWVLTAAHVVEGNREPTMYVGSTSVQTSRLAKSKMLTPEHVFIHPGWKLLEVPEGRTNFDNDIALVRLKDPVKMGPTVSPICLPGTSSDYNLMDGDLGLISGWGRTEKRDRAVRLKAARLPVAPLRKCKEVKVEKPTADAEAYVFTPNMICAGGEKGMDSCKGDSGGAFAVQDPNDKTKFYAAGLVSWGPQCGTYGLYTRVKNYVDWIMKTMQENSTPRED
Procedure: Recombinant human C1s (358–688 aa) fused with both the N-terminal IgG signal peptide and the C-terminal His tag was expressed in HEK293 cells and purified. The assay was performed in a 384-well clear plate in a total volume of 20 μL of an assay buffer 1 [50 mmol/L Tris–HCl (pH 7.5), 150 mmol/L NaCl, 0.01% (w/v) Tween 20, and 0.01% (w/v) BSA]. Compounds were dissolved in DMSO and diluted to various concentrations. After 20 nL of compound solution was added to the plate, 10 μL of substrate solution containing a 250 μmol/L Z-Lys-SBzl peptide (Watanabe Chemical, Hiroshima, Japan) and 250 μmol/L DTNB (5,5′-dithiobis(2-nitrobenzoic acid)) (Sigma, MO, USA) was added to the plate. Then, 8 nmol/L human C1s was added to the plate and incubated at room temperature for 60 min. The absorbance at 405 nm was detected using an EnVision multilabel plate reader. […] The IC50 values were calculated using IDBS XLfit software.

human C1r = target: T2, human C1r (Homo sapiens, UniProt P00736); test: Human C1r enzyme assay; conditions: supplementary csv
T2 construct: Recombinant human C1r (375–705 aa) fused with both the N-terminal IgG signal peptide; IgG signal peptide (N); His tag (C); made in house; host or cells: HEK293 cells
T2 sequence (P00736 375-705): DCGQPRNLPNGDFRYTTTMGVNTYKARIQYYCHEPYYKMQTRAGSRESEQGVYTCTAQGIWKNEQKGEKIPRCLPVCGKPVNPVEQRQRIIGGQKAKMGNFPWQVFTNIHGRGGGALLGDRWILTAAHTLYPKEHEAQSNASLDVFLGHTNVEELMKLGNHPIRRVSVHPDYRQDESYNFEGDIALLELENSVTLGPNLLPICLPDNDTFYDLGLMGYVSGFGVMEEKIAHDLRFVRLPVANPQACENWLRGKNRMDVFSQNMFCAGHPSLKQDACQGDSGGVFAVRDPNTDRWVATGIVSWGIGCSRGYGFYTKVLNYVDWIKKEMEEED
Excerpt: Recombinant human C1r (375–705 aa) fused with both the N-terminal IgG signal peptide and the C-terminal His tag was expressed in HEK293 cells and purified. Human C1r assay conditions were the same as for human C1s, except that the enzyme solution concentration was 3 nmol/L and the substrate peptide was 250 μmol/L Z-Gly-Arg-SBzl (custom synthesis from Peptide Institute, Osaka, Japan) instead of Z-Lys-SBzl.

human trypsin = test: Human trypsin enzyme assay; conditions: supplementary csv
Procedure: Recombinant human trypsin (FUJIFILM Wako, Osaka, Japan) and the substrate were diluted in an assay buffer [50 mmol/L Tris–HCl (pH 7.5), 145 mmol/L NaCl, 2 mmol/L CaCl2, and 0.01% (w/v) Tween 20]. After 20 nL of compound solution was added to a 384-well black plate, 3 μL of substrate solution containing 25 μmol/L Boc-Phe-Ser-Arg-MCA (Peptide Institute, Osaka, Japan) was added to the plate. Then, 6 mU/mL human trypsin was added to the plate and incubated at room temperature for 60 min. The fluorescence at an excitation wavelength of 360 nm and an emission wavelength of 460 nm was detected using an EnVision multilabel plate reader.

human kallikrein = test: Human kallikrein enzyme assay; conditions: supplementary csv
Procedure: Recombinant human kallikrein (R&D Systems, MN, USA) was activated by thermolysin (R&D Systems, MN, USA) prior to use. Compounds were dissolved in DMSO and then diluted in an assay buffer [50 mmol/L Tris–HCl (pH 7.5), 150 mmol/L NaCl, 10 mmol/L CaCl2, and 0.01% (w/v) Tween 20]. After 5 μL of compound solution was added to a 384-well black plate, 5 μL of substrate solution containing 150 μmol/L Pro-Phe-Arg-AMC (Peptide Institute, Osaka, Japan) was added to the plate. Then, 0.42 nmol/L human kallikrein was added to the plate and incubated at room temperature for 60 min. The fluorescence at an excitation wavelength of 380 nm and an emission wavelength of 460 nm was detected using a SpectraMax Paradigm plate reader.

human plasmin = target: T3, human plasmin (Homo sapiens, UniProt P00747); test: Human plasmin enzyme assay; conditions: supplementary csv
T3 construct: purchased Zedira
Procedure: Recombinant human plasmin (Zedira, Hesse, Germany) and the substrate were diluted in an assay buffer [50 mmol/L Tris–HCl (pH 7.5), 150 mmol/L NaCl, and 0.01% (w/v) Tween 20]. Compounds were dissolved in DMSO and then diluted in an assay buffer. After 5 μL of compound solution was added to a 384-well black plate, 5 μL of substrate solution containing 75 μmol/L Boc-Val-Leu-Lys-MCA (Peptide Institute, Osaka, Japan) was added to the plate. Then, 11.25 nmol/L human plasmin was added to the plate and incubated at room temperature for 60 min. The fluorescence at an excitation wavelength of 380 nm and an emission wavelength of 460 nm was detected using an EnVision multilabel plate reader.

[1] = tested on: C5b-9 MAC formation induced by human serum; test: C5b-9 MAC complex formation study (Wieslab classical pathway kit); conditions: in vitro, dose-dependent
Procedure: The levels of the complement activation product C5b-9 MAC were determined by a Wieslab complement system classical pathway kit (Svar Life Science, Malmo, Sweden). Briefly, diluted human serum was preincubated with the reagent diluent containing 0.3% DMSO or a range of concentrations of C1s inhibitors for 10 min at room temperature. Then, the preincubated serum was added to each well, and the plate was incubated for 30 min at 37 ° C with a lid. The plate was then washed three times, and subsequent processes were conducted by following the manufacturer’s instructions. Lastly, the absorbance was measured with a Multiskan microplate photometer (Thermo Fisher Scientific, MA, USA), and the levels of complement activation were calculated based on the standard curve generated with calibrators with serially diluted human serum. The samples with serum treatment were set as 100%, and the activities of the negative control (NC) without the addition of serum were set as 0%.

T3 sequence (P00747 581-810 limits assumed): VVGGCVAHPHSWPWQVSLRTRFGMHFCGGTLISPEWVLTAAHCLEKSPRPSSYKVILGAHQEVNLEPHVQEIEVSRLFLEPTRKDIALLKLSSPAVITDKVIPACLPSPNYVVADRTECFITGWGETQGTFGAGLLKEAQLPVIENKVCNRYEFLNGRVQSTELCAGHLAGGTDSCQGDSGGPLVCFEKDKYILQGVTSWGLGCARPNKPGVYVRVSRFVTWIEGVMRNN

IC50 (human C1s): 0.036 µM
IC50 (human C1r): > 30 µM
IC50 (human trypsin): > 30 µM
IC50 (human kallikrein): > 30 µM
IC50 (human plasmin): > 30 µM
Structure (SMILES): Cc1cc([C@H]2CN(c3cc(F)c4c(N)nncc4c3)CCN2c2cccc(F)c2)no1 [Compound (R)-8, 8-Fluoro-6-[(3R)-4-(3-fluorophenyl)-3-(5-methyl-1,2-oxazol-3-yl)piperazin-1-yl]phthalazin-1-amine]
Inhibition of MAC formation induced by human serum [1]: significantly inhibited
